Measured values: ChEMBL document CHEMBL1146939, “Design, synthesis, and biological evaluations of novel oxindoles as HIV-1 non-nucleoside reverse transcriptase inhibitors. Part 2” (Bioorg Med Chem Lett, 2006)

How the values were obtained:
[1] = tested on: Human immunodeficiency virus 1; assay: Antiviral activity against HIV1 in HEK293T cells; assay type: functional, organism-based; conditions: Human immunodeficiency virus 1, HEK-293T
HEK293 = assay: Cytotoxicity against HEK293T cells; assay type: functional; conditions: Homo sapiens
[2] = tested on: Human immunodeficiency virus 1; assay: Antiviral activity against HIV1 L100I mutant; assay type: functional, organism-based
[3] = tested on: Human immunodeficiency virus 1; assay: Antiviral activity against HIV1 K103N mutant; assay type: functional, organism-based
[4] = tested on: Human immunodeficiency virus 1; assay: Antiviral activity against HIV1 V106A mutant; assay type: functional, organism-based
[5] = tested on: Human immunodeficiency virus 1; assay: Antiviral activity against HIV1 I135T mutant; assay type: functional, organism-based
[6] = tested on: Human immunodeficiency virus 1; assay: Antiviral activity against HIV1 I135V mutant; assay type: functional, organism-based
[7] = tested on: Human immunodeficiency virus 1; assay: Antiviral activity against HIV1 E138K mutant; assay type: functional, organism-based
[8] = tested on: Human immunodeficiency virus 1; assay: Antiviral activity against HIV1 V179E mutant; assay type: functional, organism-based
[9] = tested on: Human immunodeficiency virus 1; assay: Antiviral activity against HIV1 Y181C mutant; assay type: functional, organism-based
[10] = tested on: Human immunodeficiency virus 1; assay: Antiviral activity against HIV1 Y188L mutant; assay type: functional, organism-based
[11] = tested on: Human immunodeficiency virus 1; assay: Antiviral activity against HIV1 F227C mutant; assay type: functional, organism-based
[12] = tested on: Human immunodeficiency virus 1; assay: Antiviral activity against HIV1 F227L mutant; assay type: functional, organism-based

Row | Compound | EC50 [1] | CC50 (HEK293) | further results
1 | O=C1Nc2ccc(Cl)cc2[C@@]12C[C@@H]2c1ccncc1 | > 10000 nM | > 10000 nM | –
2 | O=C1Nc2ccc(Cl)cc2[C@@]12C[C@@H]2c1cccn1S(=O)(=O)c1ccccc1 | 6770 nM | > 10000 nM | –
3 | O=C1Nc2ccc(Cl)cc2[C@@]12C[C@@H]2c1ccccc1 | 244 nM | > 10000 nM | –
4 | C=Cc1cccc([C@H]2C[C@]23C(=O)Nc2ccc(Cl)cc23)n1 | 5 nM | > 10000 nM | EC50 [2]: 178 nM; EC50 [3]: 11100 nM; EC50 [4]: 149 nM; EC50 [5]: 16 nM; EC50 [6]: < 3 nM; EC50 [7]: 20 nM; EC50 [8]: 88 nM; EC50 [9]: 85 nM; EC50 [10]: 22600 nM; EC50 [11]: 578 nM; EC50 [12]: 88 nM
5 | CSc1nc([C@H]2C[C@]23C(=O)Nc2ccc(Cl)cc23)ccc1C#N | 436 nM | > 10000 nM | –
6 | O=C1Nc2ccc(Cl)cc2[C@@]12C[C@@H]2c1ccc2c(O)cccc2n1 | 587 nM | > 10000 nM | –
7 | O=C1Nc2ccc(Cl)cc2[C@@]12C[C@@H]2c1ccc2ccccc2n1 | 10 nM | > 10000 nM | –
8 | C=Cc1cccc([C@H]2C(C)(C)[C@]23C(=O)Nc2ccc(Cl)cc23)n1 | 8 nM | > 10000 nM | EC50 [2]: 228 nM; EC50 [3]: 696 nM; EC50 [4]: 41 nM; EC50 [5]: 37 nM; EC50 [6]: 29 nM; EC50 [7]: 26 nM; EC50 [8]: 10 nM; EC50 [9]: 120 nM; EC50 [10]: 1070 nM; EC50 [11]: 87 nM; EC50 [12]: 14 nM
9 | Cn1nnc([C@H]2C[C@]23C(=O)Nc2ccc(Cl)cc23)n1 | 55 nM | > 10000 nM | –
10 | Cc1ccc([C@H]2C[C@]23C(=O)Nc2ccc(Cl)cc23)o1 | 73 nM | > 10000 nM | –
11 | O=C1Nc2ccc(Cl)cc2[C@@]12C[C@@H]2c1ccco1 | 200 nM | > 10000 nM | –
12 | CCc1ccc([C@H]2C[C@]23C(=O)Nc2ccc(Cl)cc23)o1 | 216 nM | > 10000 nM | –
13 | O=C1Nc2ccc(Cl)cc2[C@@]12C[C@@H]2c1cccc(-c2ccccc2)n1 | 138 nM | > 10000 nM | –
14 | O=C1Nc2ccc(Cl)cc2[C@@]12C[C@@H]2c1cc(Br)cs1 | 1270 nM | > 10000 nM | –
15 | O=C1Nc2ccc(Cl)cc2[C@@]12C[C@@H]2c1cccc(Br)n1 | 23 nM | > 10000 nM | EC50 [2]: 277 nM; EC50 [3]: 1930 nM; EC50 [4]: 166 nM; EC50 [5]: 46 nM; EC50 [6]: 14 nM; EC50 [7]: 32 nM; EC50 [8]: 48 nM; EC50 [9]: 134 nM; EC50 [10]: 6520 nM; EC50 [11]: 145 nM; EC50 [12]: 48 nM
16 | O=C1Nc2ccc(Cl)cc2[C@@]12C[C@@H]2c1cc([N+](=O)[O-])cs1 | > 10000 nM | > 10000 nM | –
17 | CC1(C)[C@H](c2ccc3ccccc3n2)[C@@]12C(=O)Nc1ccc(Cl)cc12 | 10 nM | > 10000 nM | EC50 [2]: 58 nM; EC50 [3]: 2350 nM; EC50 [4]: 102 nM; EC50 [5]: 55 nM; EC50 [6]: 47 nM; EC50 [7]: 71 nM; EC50 [8]: 483 nM; EC50 [9]: 717 nM; EC50 [10]: > 10000 nM; EC50 [11]: 2080 nM; EC50 [12]: 381 nM
18 | O=C1Nc2ccc(Cl)cc2[C@@]12C[C@@H]2c1cccc[n+]1[O-] | > 10000 nM | > 10000 nM | –
19 | CC#Cc1cccc([C@H]2C[C@]23C(=O)Nc2ccc(Cl)cc23)n1 | 648 nM | > 10000 nM | –
20 | O=C1Nc2ccc(Cl)cc2[C@@]12C[C@@H]2c1ccccc1Br | > 10000 nM | > 10000 nM | –
21 | O=C1Nc2ccc(Cl)cc2[C@@]12C[C@@H]2c1cccc(-c2ccco2)n1 | 18 nM | 7950 nM | EC50 [2]: 2090 nM; EC50 [3]: 14300 nM; EC50 [4]: 2520 nM; EC50 [5]: 76 nM; EC50 [6]: 55 nM; EC50 [7]: 28 nM; EC50 [8]: 101 nM; EC50 [9]: 265 nM; EC50 [10]: 23100 nM; EC50 [11]: 658 nM; EC50 [12]: 2350 nM
22 | O=C1Nc2ccc(Cl)cc2[C@@]12C[C@@H]2c1ccc(-c2cccc(C(F)(F)F)c2)o1 | 5550 nM | > 10000 nM | –
23 | O=C1Nc2ccc(Cl)cc2[C@@]12C[C@@H]2c1nn[nH]n1 | > 10000 nM | 7610 nM | –
24 | Cn1cccc1-c1cccc([C@H]2C[C@]23C(=O)Nc2ccc(Cl)cc23)n1 | 557 nM | > 10000 nM | –

Row | Compound | EC50 [1] | CC50 (HEK293) | further results
25 | O=C1Nc2ccc(Cl)cc2[C@@]12C[C@@H]2c1cc2ccccc2s1 | 4970 nM | > 10000 nM | –
26 | O=C1Nc2ccc(Cl)cc2[C@@]12C[C@@H]2c1ccc(Br)cn1 | 23 nM | > 10000 nM | –
27 | CC(=O)/C=C/c1cccc([C@H]2C[C@]23C(=O)Nc2ccc(Cl)cc23)n1 | 1810 nM | 6130 nM | –
28 | Cc1ccsc1[C@H]1C[C@]12C(=O)Nc1ccc(Cl)cc12 | 844 nM | > 10000 nM | –
29 | O=C1Nc2ccc(Cl)cc2[C@@]12C[C@@H]2c1ccc(F)cc1 | > 10000 nM | > 10000 nM | –
30 | COc1c(C)cnc([C@H]2C[C@]23C(=O)Nc2ccc(Cl)cc23)c1C | 463 nM | > 10000 nM | –
31 | CC1(C)[C@H](c2cccc(Br)n2)[C@@]12C(=O)Nc1ccc(Cl)cc12 | 28 nM | 5240 nM | –
32 | O=C1Nc2ccc(Cl)cc2[C@@]12C[C@@H]2c1cccc(-c2ccccn2)n1 | 504 nM | > 10000 nM | –
33 | Cn1ccnc1[C@H]1C[C@]12C(=O)Nc1ccc(Cl)cc12 | > 10000 nM | > 10000 nM | –
34 | Cc1cnc([C@H]2C[C@]23C(=O)Nc2ccc(Cl)cc23)c(C)c1[N+](=O)[O-] | 180 nM | > 10000 nM | –
35 | O=C1Nc2ccc(Cl)cc2[C@@]12C[C@@H]2c1cccnc1 | > 10000 nM | > 10000 nM | –
36 | O=C1Nc2ccc(Cl)cc2[C@@]12C[C@@H]2c1ccc2ccccc2c1 | > 10000 nM | > 10000 nM | –
37 | Cn1cccc1[C@H]1C[C@]12C(=O)Nc1ccc(Cl)cc12 | > 10000 nM | > 10000 nM | –
38 | O=C1Nc2ccc(Cl)cc2[C@@]12C[C@@H]2c1cc2ccccc2o1 | 86 nM | > 10000 nM | –
39 | Cc1cccc([C@H]2C[C@]23C(=O)Nc2ccc(Cl)cc23)n1 | 39 nM | > 10000 nM | –
40 | O=C1Nc2ccc(Cl)cc2[C@@]12C[C@@H]2c1nccs1 | > 10000 nM | > 10000 nM | –
41 | COC(=O)c1cc(OC)cc(OC)c1[C@H]1C[C@]12C(=O)Nc1ccc(Cl)cc12 | 167 nM | > 10000 nM | –
42 | O=C1Nc2ccc(Cl)cc2[C@@]12C[C@@H]2c1ccc(Br)o1 | 245 nM | > 10000 nM | –
43 | COc1ccc([C@H]2C[C@]23C(=O)Nc2ccc(Cl)cc23)cc1 | > 10000 nM | > 10000 nM | –
44 | CCc1ccc([C@H]2C[C@]23C(=O)Nc2ccc(Cl)cc23)s1 | 160 nM | > 10000 nM | –
45 | O=C1Nc2ccc(Cl)cc2[C@@]12C[C@@H]2c1cccc(-c2cccs2)n1 | 16 nM | > 10000 nM | EC50 [2]: 100 nM; EC50 [3]: 2240 nM; EC50 [4]: 147 nM; EC50 [5]: 68 nM; EC50 [6]: 263 nM; EC50 [7]: 38 nM; EC50 [8]: 60 nM; EC50 [9]: 63 nM; EC50 [10]: 1970 nM; EC50 [11]: 313 nM; EC50 [12]: 365 nM
46 | Cn1nnnc1[C@H]1C[C@]12C(=O)Nc1ccc(Cl)cc12 | > 10000 nM | > 10000 nM | –
47 | O=C1Nc2ccc(Cl)cc2[C@@](C#CC2CC2)(C(F)(F)F)O1 [EFAVIRENZ] | – | 10000 nM | EC50 [5]: 1 nM; EC50 [9]: 1.1 nM; EC50 [11]: 8 nM
48 | Cc1ccnc2c1NC(=O)c1cccnc1N2C1CC1 [NEVIRAPINE] | – | > 10000 nM | EC50 [5]: 207 nM; EC50 [9]: > 10000 nM; EC50 [10]: > 10000 nM; EC50 [11]: 733 nM
